Here are results for 24 compounds from patent publication US20240246946A1, “MODULATORS OF TREX1” (Constellation Pharmaceuticals, Inc., priority 2021, published 2024).

The target in assay [1] is T1, full length human TREX1 (Homo sapiens, UniProt Q9NSU2).
T1 construct: N-terminally His-Tev tagged full length human TREX1; made in house; host or cells: E. coli
T1 sequence (Q9NSU2 1-314): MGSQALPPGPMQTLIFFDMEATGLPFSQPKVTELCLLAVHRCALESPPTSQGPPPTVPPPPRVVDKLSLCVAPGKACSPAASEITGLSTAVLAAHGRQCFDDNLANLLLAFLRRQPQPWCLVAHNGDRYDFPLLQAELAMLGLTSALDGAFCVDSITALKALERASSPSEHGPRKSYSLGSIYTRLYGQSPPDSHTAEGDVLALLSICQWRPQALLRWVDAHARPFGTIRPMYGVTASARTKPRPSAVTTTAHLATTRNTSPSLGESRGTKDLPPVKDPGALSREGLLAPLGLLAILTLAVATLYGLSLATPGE
The assay can be described thus: hTREX1 Biochemical Assay (fluorescence, dsDNA substrate degradation). The settings on record: biochemical, read-out: hTREX1 IC50. In outline:
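Cleavage of 60 nM TEX615/quencher-labelled dsDNA in pH 7.4 Tris buffer with 5 mM MgCl2, 1.0% DMSO, run 18 hours at 25° C, EDTA-quenched; fluorescence read-out.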

Assay [2] concerns the target T2, human TREX2 (residues M44-A279) (Homo sapiens, UniProt Q9BQ50).
T2 construct: human TREX2 (residues M44-A279, expressed in E. coli); made in house; host or cells: E. coli
T2 sequence (Q9BQ50 44-279 isoform Q9BQ50-1): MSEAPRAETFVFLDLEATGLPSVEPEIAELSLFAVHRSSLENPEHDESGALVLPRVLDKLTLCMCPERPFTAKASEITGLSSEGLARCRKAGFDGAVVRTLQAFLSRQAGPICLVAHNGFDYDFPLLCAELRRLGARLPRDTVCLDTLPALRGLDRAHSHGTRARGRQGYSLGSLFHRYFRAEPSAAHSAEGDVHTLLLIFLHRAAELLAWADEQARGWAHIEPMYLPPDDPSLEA
The assay can be described thus: hTREX2 Biochemical Assay (fluorescence, dsDNA substrate degradation). Conditions: biochemical selectivity for hTREX1 vs hTREX2. Summed up:
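N-His-Tev E. coli enzyme (50 pM) pre-incubated with compound 4 h at 25 °C, then 60 nM TEX615/quencher dsDNA added; 18 h at 25 °C, pH 7.4 Tris buffer with 5 mM MgCl2, 1.0% DMSO. EDTA-quenched; fluorescence 570 ex/615 em from liberated fluorophore, 10-point dose-response.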

Assay [3] addresses T3, full length mouse TREX1 (Mus musculus, UniProt Q91XB0).
T3 construct: N-terminally His-Tev tagged full length mouse TREX1; made in house; host or cells: E. coli
T3 sequence (Q91XB0 1-314): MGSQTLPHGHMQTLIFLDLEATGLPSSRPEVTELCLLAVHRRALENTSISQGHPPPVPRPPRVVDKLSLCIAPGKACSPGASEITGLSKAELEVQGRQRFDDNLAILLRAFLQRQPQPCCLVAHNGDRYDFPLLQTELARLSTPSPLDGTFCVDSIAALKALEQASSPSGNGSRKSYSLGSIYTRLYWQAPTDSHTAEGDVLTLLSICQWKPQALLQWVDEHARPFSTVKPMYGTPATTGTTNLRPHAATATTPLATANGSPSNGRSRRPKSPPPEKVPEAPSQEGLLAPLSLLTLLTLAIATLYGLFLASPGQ
Nature of the assay: mTREX1 Biochemical Assay (fluorescence, dsDNA substrate degradation). The settings on record: biochemical, read-out: mTREX1 IC50. Summed up:
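Reaction run 18 h at 25° C. with 60 nM TEX615/quencher-labelled dsDNA and 6 pM mouse TREX1 in Tris buffer (pH 7.4, 5 mM MgCl2, 1.0% DMSO), enzyme having sat 4 h with compound across 10 concentrations. EDTA quench; substrate degradation measured as fluorescence increase.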

Structures are written as SMILES.

The term IC50 denotes the concentration needed to halve the response being measured. Regarding `Cc1cc(C(c2cc(F)ccc2C#N)C(C)c2nc(C(=O)Nc3cnoc3)c(O)c(=O)n2C)nn1C` (single isomer, unassigned) [Example 112 D1E2], the IC50 in assay [1] and in assay [3] was greater than 10 nM in each case. In addition, the “hTREX1 vs hTREX2 selectivity” value in assay [2] was “A (A = <25 fold selective for hTREX1)”.
Consider `Cc1cc(C(c2cc(F)ccc2C#N)C(C)c2nc(C(=O)Nc3cnoc3)c(O)c(=O)n2C)nn1C` (single isomer, unassigned) [Example 112 D2E2], for which the IC50 in assay [1] and in assay [3] was greater than 10 nM each time. In assay [2], the “hTREX1 vs hTREX2 selectivity” value was “A (A = <25 fold selective for hTREX1)”.
`Cc1cc(C(c2cc(F)ccc2Cl)C(C)c2nc(C(=O)Nc3cnoc3)c(O)c(=O)n2C)n(C)n1` (single isomer, unassigned) [Example 113 D1E2]: the half-inhibitory concentration (IC50) in assay [1] and in assay [3] was greater than 10 nM throughout. In assay [2], the “hTREX1 vs hTREX2 selectivity” value is “A (A = <25 fold selective for hTREX1)”.
On to `Cc1cc(C(c2cc(F)ccc2Cl)C(C)c2nc(C(=O)Nc3cnoc3)c(O)c(=O)n2C)n(C)n1` (single isomer, unassigned) [Example 113 D2E1], for which the IC50 in assay [1] and in assay [3] was greater than 10 nM in each case. Besides, the “hTREX1 vs hTREX2 selectivity” value in assay [2] is “A (A = <25 fold selective for hTREX1)”.
`Cc1cnc(C(c2cc(F)ccc2C#N)C(C)c2nc(C(=O)Nc3cnoc3)c(O)c(=O)n2C)cn1` (single isomer, unassigned) [Example 115 D1E1]: the IC50 in assay [1] and in assay [3] was greater than 10 nM throughout. The “hTREX1 vs hTREX2 selectivity” value in assay [2] is on record as “A (A = <25 fold selective for hTREX1)”.
On to `Cc1cnc(C(c2cc(F)ccc2Cl)C(C)c2nc(C(=O)Nc3cnoc3)c(O)c(=O)n2C)cn1` (single isomer, unassigned) [Example 117 D1E1], for which the IC50 in assay [1] and in assay [3] was greater than 10 nM each time. In addition, the “hTREX1 vs hTREX2 selectivity” value in assay [2] is on record as “A (A = <25 fold selective for hTREX1)”.
In the case of `Cc1cnc(C(c2cc(F)ccc2Cl)C(C)c2nc(C(=O)Nc3cnoc3)c(O)c(=O)n2C)cn1` (single isomer, unassigned) [Example 117 D2E2], the IC50 in assay [1] and in assay [3] was greater than 10 nM each time. Further, in assay [2], the “hTREX1 vs hTREX2 selectivity” value is reported as “A (A = <25 fold selective for hTREX1)”.
Consider `CC(c1nc(C(=O)Nc2cnoc2)c(O)c(=O)n1C)C(c1cnc(C(F)(F)F)cn1)c1ccccc1C#N` (single isomer, unassigned) [Example 118 D1E2], for which the IC50 in assay [1] and in assay [3] was greater than 10 nM throughout. For the same compound, in assay [2], the “hTREX1 vs hTREX2 selectivity” value is given as “A (A = <25 fold selective for hTREX1)”.
Turning to `CC(c1nc(C(=O)Nc2cnoc2)c(O)c(=O)n1C)C(c1cnc(C(F)(F)F)cn1)c1ccccc1C#N` (single isomer, unassigned) [Example 118 D2E2], the IC50 in assay [1] and in assay [3] was greater than 10 nM throughout. In assay [2], the “hTREX1 vs hTREX2 selectivity” value is “A (A = <25 fold selective for hTREX1)”.
On to `Cc1cnc(C)c(C(c2cc(F)ccc2C#N)C(C)c2nc(C(=O)Nc3cnoc3)c(O)c(=O)n2C)n1` (single isomer, unassigned) [Example 119 DIE1], for which the IC50 was less than 1 nM in assay [1] and 1 to 10 nM in assay [3]. Besides, the “hTREX1 vs hTREX2 selectivity” value in assay [2] was “C (C = >50 fold selective for hTREX1)”.
For the compound `Cc1cnc(C)c(C(c2ccccc2Cl)C(C)c2nc(C(=O)Nc3cnoc3)c(O)c(=O)n2C)n1` (single isomer, unassigned) [Example 120 D1E2], the IC50 in assay [1] and in assay [3] was greater than 10 nM in each case. In assay [2], the “hTREX1 vs hTREX2 selectivity” value is listed as “A (A = <25 fold selective for hTREX1)”.
As for `Cc1cnc(C)c(C(c2cc(F)ccc2Cl)C(C)c2nc(C(=O)Nc3cnoc3)c(O)c(=O)n2C)n1` (single isomer, unassigned) [Example 121 D1E2], the IC50 in assay [1] and in assay [3] was greater than 10 nM in each case. The “hTREX1 vs hTREX2 selectivity” value in assay [2] is recorded as “A (A = <25 fold selective for hTREX1)”.
With `Cc1nc(C)c(C(c2ccccc2C#N)C(C)c2nc(C(=O)Nc3cnoc3)c(O)c(=O)n2C)nc1C` (single isomer, unassigned) [Example 122 D1E2], the IC50 in assay [1] and in assay [3] was greater than 10 nM in each case. Also, in assay [2], the “hTREX1 vs hTREX2 selectivity” value is “B (B = 25 to 50-fold selective for hTREX1)”.
Regarding `Cc1cnc(C(c2ccccc2C#N)C(C)c2nc(C(=O)Nc3cnoc3)c(O)c(=O)n2C)c(C)n1` (single isomer, unassigned) [Example 123 D1E2], the IC50 in assay [1] and in assay [3] was greater than 10 nM each time. Besides, the “hTREX1 vs hTREX2 selectivity” value in assay [2] is “A (A = <25 fold selective for hTREX1)”.
As for `Cc1cnc(C(c2ccccc2C#N)C(C)c2nc(C(=O)Nc3cnoc3)c(O)c(=O)n2C)c(C)n1` (single isomer, unassigned) [Example 123 D2E1], the IC50 in assay [1] was 1 to 10 nM; in assay [3], greater than 10 nM. In addition, the “hTREX1 vs hTREX2 selectivity” value in assay [2] is recorded as “C (C = >50 fold selective for hTREX1)”.
With `Cc1cnc(C(c2ccccc2C#N)C(C)c2nc(C(=O)Nc3cnoc3)c(O)c(=O)n2C)c(C)n1` (single isomer, unassigned) [Example 123 D2E2], the half-inhibitory concentration (IC50) in assay [1] and in assay [3] was greater than 10 nM throughout. In addition, the “hTREX1 vs hTREX2 selectivity” value in assay [2] is given as “A (A = <25 fold selective for hTREX1)”.
As to `Cc1ncc(C(c2cc(F)ccc2C#N)C(C)c2nc(C(=O)Nc3cnoc3)c(O)c(=O)n2C)nc1C` (single isomer, unassigned) [Example 124 D1E1], the IC50 in assay [1] and in assay [3] was greater than 10 nM throughout. For the same compound, the “hTREX1 vs hTREX2 selectivity” value in assay [2] is “A (A = <25 fold selective for hTREX1)”.
As to `Cc1ncc(C(c2cc(F)ccc2C#N)C(C)c2nc(C(=O)Nc3cnoc3)c(O)c(=O)n2C)nc1C` (single isomer, unassigned) [Example 124 D2E1], the 50% inhibitory concentration (IC50) in assay [1] and in assay [3] was greater than 10 nM each time. The “hTREX1 vs hTREX2 selectivity” value in assay [2] is given as “A (A = <25 fold selective for hTREX1)”.
`Cc1ncc(C(c2cc(F)ccc2C#N)C(C)c2nc(C(=O)Nc3cnoc3)c(O)c(=O)n2C)nc1C` (single isomer, unassigned) [Example 124 D2E2]: the IC50 in assay [1] and in assay [3] was greater than 10 nM each time. The “hTREX1 vs hTREX2 selectivity” value in assay [2] is “A (A = <25 fold selective for hTREX1)”.
For `Cc1ncc(C(c2ccccc2Cl)C(C)c2nc(C(=O)Nc3cnoc3)c(O)c(=O)n2C)nc1C` (single isomer, unassigned) [Example 125 D1E1], the 50% inhibitory concentration (IC50) in assay [1] and in assay [3] was greater than 10 nM each time. Moreover, in assay [2], the “hTREX1 vs hTREX2 selectivity” value is recorded as “A (A = <25 fold selective for hTREX1)”.
`CC(c1nc(C(=O)Nc2cnoc2)c(O)c(=O)n1C)C(c1ccccc1Cl)c1cn(C)nc1F` (single isomer, unassigned) [Example 130 D1E2]: the IC50 in assay [1] and in assay [3] was greater than 10 nM each time. Moreover, in assay [2], the “hTREX1 vs hTREX2 selectivity” value is “A (A = <25 fold selective for hTREX1)”.
Turning to `CC(c1nc(C(=O)Nc2cnoc2)c(O)c(=O)n1C)C(c1ccccc1C#N)c1nnnn1C` (single isomer, unassigned) [Example 131 D1E1], the IC50 in assay [1] and in assay [3] was greater than 10 nM each time. Moreover, the “hTREX1 vs hTREX2 selectivity” value in assay [2] is “A (A = <25 fold selective for hTREX1)”.
`CC(c1nc(C(=O)Nc2cnoc2)c(O)c(=O)n1C)C(c1ccccc1C#N)c1nnnn1C` (single isomer, unassigned) [Example 131 D2E1]: the IC50 in assay [1] and in assay [3] was greater than 10 nM in each case. Besides, the “hTREX1 vs hTREX2 selectivity” value in assay [2] is on record as “C (C = >50 fold selective for hTREX1)”.
For the compound `Cc1ccn(C(c2ccccc2C#N)C(C)c2nc(C(=O)Nc3cnoc3)c(O)c(=O)n2C)n1` (single isomer, unassigned) [Example 132 D1E1], the half-maximal inhibitory concentration (IC50) in assay [1] and in assay [3] was greater than 10 nM throughout. In addition, the “hTREX1 vs hTREX2 selectivity” value in assay [2] is given as “A (A = <25 fold selective for hTREX1)”.
